Data published in PubChem BioAssay (NCI).
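Cells were grown in 96-well plates and exposed to each compound for 48 hours at five concentrations; endpoints were interpolated linearly between bracketing concentrations, or set to the highest concentration if not reached. At the GI50, growth is halved. TGI marks complete inhibition of growth.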

Legend:
Assay in all cases: NCI-60 cell line screen, 48 h
OVCAR-3 ovarian = tested on: OVCAR-3 ovarian
SK-MEL-28 melanoma = tested on: SK-MEL-28 melanoma
SNB-19 CNS = tested on: SNB-19 CNS
PC-3 prostate = tested on: PC-3 prostate
CAKI-1 renal = tested on: CAKI-1 renal
HL-60(TB) leukemia = tested on: HL-60(TB) leukemia
MOLT-4 leukemia = tested on: MOLT-4 leukemia
A498 renal = tested on: A498 renal
HS 578T breast = tested on: HS 578T breast
KM12 colon = tested on: KM12 colon
M14 melanoma = tested on: M14 melanoma
MALME-3M melanoma = tested on: MALME-3M melanoma
A549 NSCLC = tested on: A549 NSCLC
RXF 393 renal = tested on: RXF 393 renal
BT-549 breast = tested on: BT-549 breast
OVCAR-8 ovarian = tested on: OVCAR-8 ovarian
IGROV1 ovarian = tested on: IGROV1 ovarian
NCI-H23 lung = tested on: NCI-H23 lung
SK-OV-3 ovarian = tested on: SK-OV-3 ovarian
UO-31 renal = tested on: UO-31 renal
HCT-15 colon = tested on: HCT-15 colon
NCI-H460 lung = tested on: NCI-H460 lung
MDA-MB-231 breast = tested on: MDA-MB-231 breast
RPMI-8226 leukemia = tested on: RPMI-8226 leukemia
COLO 205 colon = tested on: COLO 205 colon
NCI-H226 lung = tested on: NCI-H226 lung
K-562 leukemia = tested on: K-562 leukemia
SK-MEL-2 melanoma = tested on: SK-MEL-2 melanoma
UACC-62 melanoma = tested on: UACC-62 melanoma
SNB-75 CNS = tested on: SNB-75 CNS
ACHN renal = tested on: ACHN renal
MCF7 breast = tested on: MCF7 breast
SK-MEL-5 melanoma = tested on: SK-MEL-5 melanoma
NCI-H522 lung = tested on: NCI-H522 lung
SN12C renal = tested on: SN12C renal
MDA-MB-435 = tested on: MDA-MB-435
HCT-116 colon = tested on: HCT-116 colon
DU-145 prostate = tested on: DU-145 prostate
SF-539 CNS = tested on: SF-539 CNS
CCRF-CEM leukemia = tested on: CCRF-CEM leukemia
SR leukemia = tested on: SR leukemia
T-47D breast = tested on: T-47D breast
HOP-92 NSCLC = tested on: HOP-92 NSCLC
UACC-257 melanoma = tested on: UACC-257 melanoma
OVCAR-4 ovarian = tested on: OVCAR-4 ovarian
SW-620 colon = tested on: SW-620 colon
HCC-2998 colon = tested on: HCC-2998 colon
NCI/ADR-RES ovarian = tested on: NCI/ADR-RES ovarian
TK-10 renal = tested on: TK-10 renal
LOX IMVI melanoma = tested on: LOX IMVI melanoma
SF-268 CNS = tested on: SF-268 CNS
786-0 renal = tested on: 786-0 renal
SF-295 CNS = tested on: SF-295 CNS
OVCAR-5 ovarian = tested on: OVCAR-5 ovarian
EKVX NSCLC = tested on: EKVX NSCLC
HT29 colon = tested on: HT29 colon
U251 CNS = tested on: U251 CNS
HOP-62 NSCLC = tested on: HOP-62 NSCLC
MDA-MB-468 breast = tested on: MDA-MB-468 breast

SMILES: Cc1noc2c(Cc3ccccc3)nn(CC(=O)N/N=C/c3ccc(F)cc3)c(=O)c12
- GI50 (OVCAR-3 ovarian): 87.1 µM
- TGI (OVCAR-3 ovarian): > 100 µM
- GI50 (SK-MEL-28 melanoma): > 100 µM
- TGI (SK-MEL-28 melanoma): > 100 µM
- GI50 (SNB-19 CNS): 6.74 µM
- TGI (SNB-19 CNS): 24.2 µM
- GI50 (PC-3 prostate): 66.1 µM
- TGI (PC-3 prostate): > 100 µM
- GI50 (CAKI-1 renal): 6.13 µM
- TGI (CAKI-1 renal): 32.1 µM
- GI50 (HL-60(TB) leukemia): > 100 µM
- TGI (HL-60(TB) leukemia): > 100 µM
- GI50 (MOLT-4 leukemia): > 100 µM
- TGI (MOLT-4 leukemia): > 100 µM
- GI50 (A498 renal): 11 µM
- TGI (A498 renal): 33.7 µM
- GI50 (HS 578T breast): 4.65 µM
- TGI (HS 578T breast): 46.7 µM
- GI50 (KM12 colon): > 100 µM
- TGI (KM12 colon): > 100 µM
- GI50 (M14 melanoma): 26.1 µM
- TGI (M14 melanoma): > 100 µM
- GI50 (MALME-3M melanoma): 8.99 µM
- TGI (MALME-3M melanoma): 38.5 µM
- GI50 (A549 NSCLC): 46.2 µM
- TGI (A549 NSCLC): > 100 µM
- GI50 (RXF 393 renal): 5.4 µM
- TGI (RXF 393 renal): 21.2 µM
- GI50 (BT-549 breast): 14.5 µM
- TGI (BT-549 breast): 37.8 µM
- GI50 (OVCAR-8 ovarian): 27.9 µM
- TGI (OVCAR-8 ovarian): > 100 µM
- GI50 (IGROV1 ovarian): 22.5 µM
- TGI (IGROV1 ovarian): 54.2 µM
- GI50 (NCI-H23 lung): 17 µM
- TGI (NCI-H23 lung): 41.7 µM
- GI50 (SK-OV-3 ovarian): 4.4 µM
- TGI (SK-OV-3 ovarian): 16 µM
- GI50 (UO-31 renal): 18 µM
- TGI (UO-31 renal): > 100 µM
- GI50 (HCT-15 colon): > 100 µM
- TGI (HCT-15 colon): > 100 µM
- GI50 (NCI-H460 lung): 9.78 µM
- TGI (NCI-H460 lung): > 100 µM
- GI50 (MDA-MB-231 breast): 4.92 µM
- TGI (MDA-MB-231 breast): 21.8 µM
- GI50 (RPMI-8226 leukemia): > 100 µM
- TGI (RPMI-8226 leukemia): > 100 µM
- GI50 (COLO 205 colon): > 100 µM
- TGI (COLO 205 colon): > 100 µM
- GI50 (NCI-H226 lung): 4.12 µM
- TGI (NCI-H226 lung): 29.3 µM
- GI50 (K-562 leukemia): 84.4 µM
- TGI (K-562 leukemia): > 100 µM
- GI50 (SK-MEL-2 melanoma): 16.3 µM
- TGI (SK-MEL-2 melanoma): 33.3 µM
- GI50 (UACC-62 melanoma): 20.9 µM
- TGI (UACC-62 melanoma): 66.8 µM
- GI50 (SNB-75 CNS): 8.25 µM
- TGI (SNB-75 CNS): 32.2 µM
- GI50 (ACHN renal): 4.88 µM
- TGI (ACHN renal): 24.1 µM
- GI50 (MCF7 breast): 66.5 µM
- TGI (MCF7 breast): > 100 µM
- GI50 (SK-MEL-5 melanoma): 33.2 µM
- TGI (SK-MEL-5 melanoma): > 100 µM
- GI50 (NCI-H522 lung): 19.1 µM
- TGI (NCI-H522 lung): 73.6 µM
- GI50 (SN12C renal): > 100 µM
- TGI (SN12C renal): > 100 µM
- GI50 (MDA-MB-435): > 100 µM
- TGI (MDA-MB-435): > 100 µM
- GI50 (HCT-116 colon): 5.08 µM
- TGI (HCT-116 colon): 77.3 µM
- GI50 (DU-145 prostate): > 100 µM
- TGI (DU-145 prostate): > 100 µM
- GI50 (SF-539 CNS): 16.7 µM
- TGI (SF-539 CNS): 37.3 µM
- GI50 (CCRF-CEM leukemia): > 100 µM
- TGI (CCRF-CEM leukemia): > 100 µM
- GI50 (SR leukemia): > 100 µM
- TGI (SR leukemia): > 100 µM
- GI50 (T-47D breast): 5.62 µM
- TGI (T-47D breast): > 100 µM
- GI50 (HOP-92 NSCLC): 9.56 µM
- TGI (HOP-92 NSCLC): 27.8 µM
- GI50 (UACC-257 melanoma): 78.1 µM
- TGI (UACC-257 melanoma): > 100 µM
- GI50 (OVCAR-4 ovarian): 3.95 µM
- TGI (OVCAR-4 ovarian): > 100 µM
- GI50 (SW-620 colon): > 100 µM
- TGI (SW-620 colon): > 100 µM
- GI50 (HCC-2998 colon): > 100 µM
- TGI (HCC-2998 colon): > 100 µM
- GI50 (NCI/ADR-RES ovarian): 21.3 µM
- TGI (NCI/ADR-RES ovarian): > 100 µM
- GI50 (TK-10 renal): 13.6 µM
- TGI (TK-10 renal): 36.9 µM
- GI50 (LOX IMVI melanoma): 33 µM
- TGI (LOX IMVI melanoma): > 100 µM
- GI50 (SF-268 CNS): 24.6 µM
- TGI (SF-268 CNS): > 100 µM
- GI50 (786-0 renal): 3.13 µM
- TGI (786-0 renal): 12.4 µM
- GI50 (SF-295 CNS): 3.33 µM
- TGI (SF-295 CNS): 17.3 µM
- GI50 (OVCAR-5 ovarian): > 100 µM
- TGI (OVCAR-5 ovarian): > 100 µM
- GI50 (EKVX NSCLC): > 100 µM
- TGI (EKVX NSCLC): > 100 µM
- GI50 (HT29 colon): > 100 µM
- TGI (HT29 colon): > 100 µM
- GI50 (U251 CNS): 18.3 µM
- TGI (U251 CNS): > 100 µM
- GI50 (HOP-62 NSCLC): 5.29 µM
- TGI (HOP-62 NSCLC): 21 µM
- GI50 (MDA-MB-468 breast): 16.1 µM
- TGI (MDA-MB-468 breast): 57.8 µM
